Source: patent publication US11723894B2, “Combination product for the treatment of neurological and/or psychiatric disorders” (Consejo Superior de Investigaciones Cientificas (CSIC), priority 2017, dated 2023)

Tested on: Human SH-SY5Y dopaminergic cells
Assay: 6-OHDA in vitro model of Parkinson's Disease, cell viability (MTT)
Assay type: cell-based
Details: tryptamine 1 μM 1 h, then 6-OHDA 30 μM 24 h
Excerpt: Example 9: DMT, DET, DPT and 5-MeO-DMT prevent dopaminergic cell death and inflammation (Only Measured for DMT) caused by the potent and selective dopaminergic toxin 6-OHDA in an in vitro model of Parkinson's Disease. These desired effects are preserved in the presence of the 5-HT2A antagonist Ritanserin (Rit). The Human SH-SY5Y dopaminergic cell line was obtained from Sigma-Aldrich, cultured in 96-well plates and propagated in RPMI medium containing glutamine (1%) and 15% of fetal bovine serum (FBS) plus antibiotic (gentamicin), under humidified 5% CO2 and 95% air. On attaining semiconfluence, separate groups of cells were treated with either: a) one of the four hallucinogenic tryptamines at 1 μM for 1 h, followed by 6-OHDA at 30 μM for 24 hours; or b) Rit at 1 μM for 1h, followed one of the four hallucinogenic tryptamines at 1 μM for an additional hour, at which point 6-OHDA was administered, also at 30 μM, and kept for 24 hours. Vehicle-treated cultures were used as controls. Cell cultures were then processed to assess cell viability (for all four tryptamines) and quantification of nitrite concentration (only performed in the DMT and DMT+Rit tests). Cell viability was measured using the MTT assay (Roche Diagnostic, GmbH), which is based on the ability of viable cells to reduce yellow MTT to blue formazan. After the aforementioned 24 h period in the presence of the different tryptamines or the respective tryptamine+Rit combinations, cells were incubated with MTT (0.5 mg/ml, 4 h) and subsequently solubilized in 10% SDS/0.01 M HCl for 12 h in the dark. The extent of MTT reduction was quantified by absorbance measurement at the 595 nm wavelength, as indicated in the instructions provided by the manufacturer. Nitrite quantification: Due to access to equipment problems at the time the experiments with DET, DPT and 5-MeO-DMT were conducted, the assessment of nitrite levels in the medium could only be done for the DMT experiments. These determinations were carried out as described in Example 8. Results from the cell viability tests are expressed as the percentage of viable dopaminergic cells measured. Results from nitrite determinations are expressed as actual concentrations (μM). Results from both techniques are presented in bar graphs.

CN(C)CCc1c[nH]c2ccccc12 [DMT, N,N-dimethyltryptamine]
reduction in dopaminergic cell death in the presence of Ritanserin (Rit 1 μM 1 h): maintained | percentage of viable dopaminergic neurons (vs 6-OHDA alone): significant increases
